In paper PMC11574021, “CEP192 localises mitotic Aurora-A activity by priming its interaction with TPX2” (The EMBO Journal, 2024):

System: PLK1 in RPE1 p53-/- cells
Test: Immunofluorescence, PLK1 centrosomal signal intensity, RPE1 p53-/-
Type: cell-based, Homo sapiens
Settings: Aurora-A inhibitor 30 min
Protocol: As noted in the figures, the following drugs were incubated with cells for 30 min at 37 °C: Aurora-B-i ZM447439 2 µM [10 mM], PLK1-I BI2536 1 µM [10 mM] and Aurora-A-i MLN8237 [5 mM] was used at 250 and 500 nM in U251 and RPE1 cells, respectively. Drugs were resuspended in DMSO to the stock concentrations indicated in square brackets. BI2536 (HY-50698), MLN8237 (HY-10971) and ZM447439 (HY-10128) were all purchased from MedChemExpress. For western blotting, a 20-min pre-treatment with proteasome inhibitor (20 µM MG-132, MerckMillipore, 47490 [20 mM]) was required prior to the addition of DMSO control or kinase inhibitors. This prevented mitotic exit as a consequence of checkpoint override following Aurora-A and Aurora-B inhibitor addition.
For siRNA depletion, 1 × 10^5 cells were seeded in six-well plates and transfected as described above for 48 h prior to fixation. For all other experiments, 2.5 × 10^5 cells were seeded in six-well plates and grown for 24 h before fixation. All cells were grown on 12 mm diameter glass coverslips (VWR, 631–1577). […]
For CEP192, LATS2-pS83, PCNT, PLK1 and γ-tubulin intensity, a 20-pixel diameter circle was centred over each centrosome and the intensity measured. […]

**Q.** `COc1cc(Nc2ncc3c(n2)-c2ccc(Cl)cc2C(c2c(F)cccc2OC)=NC3)ccc1C(=O)O` [Alisertib] was tested. Which “centrosomal Plk1 levels” value did it give?
**A.** negative trend
